Measured values reported in patent US20130287890A1, “INHIBITOR OF THE PRODUCTION OF ADVANCED GLYCATION END PRODUCTS” (UENO FINE CHEMICALS INDUSTRY, LTD., priority 2012, published 2013).

Columns and labels:
human RAGE = target: T1, human RAGE (Homo sapiens, UniProt Q15109); experiment: RAGE agonist activity of reaction samples (120° C., 60 minutes), NF-κB luciferase assay in C6 glioma cells; format: cell-based, rat; settings: Test Example 2
T1 construct: human RAGE plasmid (including full-length human RAGE cDNA); expressed in transfected cells; host or cells: C6 glioma cells carrying pNF-κB-Luc plasmid and human RAGE plasmid
Experimental: (§1) Food-derived proteins, carbohydrates and a phosphate buffer solution were charged in a 30 mL glass test tube in each amount shown in Table 6, followed by sealing and stirring, and then the mixture was reacted in an autoclave at 120° C. for 60 minutes. Next, the reactant was fractionated by centrifugation at 3,000 rpm for 3 hours using an ultrafiltration unit (VIVA SPIN 20, manufactured by Sartorius Corporation). The obtained low molecular weight fraction was used as a sample for determination of 3-DG, while the obtained high molecular weight fraction was used as a sample for the determination of fluorescent AGEs, RAGE agonist activity and RAGE antagonist activity. Food-derived proteins and carbohydrates used are as follows:
Using Luciferase Assay System (manufactured by Promega Corporation), evaluation of RAGE agonist activity was performed. (Day 1) According to the methods disclosed in Diabetes, 2006, vol. 55, pp. 2510-2522, C6 glioma cells into which pNF-κB-Luc plasmid (manufactured by Stratagene Corporation) and human RAGE plasmid (including full-length human RAGE cDNA) have been introduced were seeded at 100 μL/well into a 96-well plate and cultured in a CO2 incubator until the cells were confluent. For the culture, 10% FBS/DMEM medium was used. (Day 2) The medium was removed, and after wells were washed with 300 μL of serum-free DMEM medium, 100 μL of 0.1% FBS/DMEM medium was slowly added. Then, the medium was incubated overnight in a CO2 incubator. (Day 3) The sample was diluted using the medium, and 50 μL of the diluted sample was added to each well. AGE-BSA in which AGE was formed with glyceraldehydes (50 μg/mL) was added to a control well. After incubation in a CO2 incubator for 4 hours, the medium was removed and wells were washed 2 times with 300 μL of PBS (−). Then, 25 μL of 1× lysis buffer was added on ice. After the plate was shaken for 15 seconds, 20 μL of lysate was charged in a new white plate. Further 100 μL of a luciferase assay reagent was added, and a […] was measured by a luminometer. Using 5 μL of lysate, quantitative determination of protein was also performed.

fluorescent AGEs = experiment: Quantitative determination of fluorescent AGEs (relative to perylene) after reaction at 120° C. for 60 minutes; format: biochemical; settings: for Fluorescent AGEs: 120° C., 60 minutes
Experimental: Amino acids, carbohydrates and a phosphate buffer solution were charged in a 30 mL glass test tube in each amount shown in Table 1, followed by sealing and stirring. […] The filtrate thus obtained was used as a sample. The amino acids and carbohydrates used are as follows. After weighing 2.5 mg of a standard substance perylene, the standard substance perylene was fully dissolved in 50 mL of deaerated ethanol added thereto to prepare a perylene solution. The perylene solution diluted to the concentration of 10 μM was exposed to excitation light with a wavelength of 386 nm and then the area was calculated by measuring a fluorescence intensity ranging from 410 to 600 nm. […] Food-derived proteins, carbohydrates and a phosphate buffer solution were charged in a 30 mL glass test tube in each amount shown in Table 6, followed by sealing and stirring, and then the mixture was reacted in an autoclave at 120° C. for 60 minutes. Next, the reactant was fractionated by centrifugation at 3,000 rpm for 3 hours using an ultrafiltration unit (VIVA SPIN 20, manufactured by Sartorius Corporation). […] Food-derived proteins and carbohydrates used are as follows: After 0.4 g of a high molecular weight fraction and 8 mL of 6N hydrochloric acid were charged in an ampule and the air in the ampule was replaced with nitrogen, hydrolysis was performed at 110° C. for 16 hours in a heat block. After reaction, 8 mL of 5N sodium hydroxide was added, and pH was adjusted using 1N hydrochloric acid and 1N sodium hydroxide to make pH within a range of 7.2 to 7.6. […] Using the thus obtained filtrate as a sample, fluorescent AGEs were quantitatively determined using the following methods. After weighing 2.5 mg of a standard substance perylene, the standard substance perylene was fully dissolved in 10 mL of deaerated ethanol added thereto to prepare a perylene solution. The perylene solution diluted to the concentration of 10 μM was exposed to excitation light with a wavelength of 386 nm and then the area was calculated by measuring a fluorescence intensity ranging from 410 to 600 nm.

3-DG = experiment: Quantitative determination of 3-DG (HPLC) after reaction of amino acids or food-derived proteins with carbohydrates at 120° C. for 60 minutes; format: biochemical; settings: for 3-DG: 120° C., 60 minutes
Experimental: Amino acids, carbohydrates and a phosphate buffer solution were charged in a 30 mL glass test tube in each amount shown in Table 1, followed by sealing and stirring. After reacting in an autoclave at 120° C. for 60 minutes, the reaction solution was cooled and then filtered through a 0.2 μm filter. The filtrate thus obtained was used as a sample. The amino acids and carbohydrates used are as follows.
To 2 mL of a sample, the same amount of a 60% perchloric acid solution was added to deproteinize the sample. The sample was neutralized with 4 mL of an aqueous saturated sodium hydrogen carbonate solution and 0.8 mL of a 0.1% methanol solution of 2,3-diaminonaphthalene was added, and then the mixture was reacted at 4° C. for 16 hours. Next, the reactant was extracted with 4.4 mL of ethyl acetate, concentrated to dryness using an evaporator, dissolved in 5 mL of methanol, and then filtered through a 0.45 μm filter. The filtrate was subjected to high-performance liquid chromatography and 3-DG was quantitatively determined under the following measurement conditions.
Injection amount: 20 μL Column: TSK-GEL, ODS-80Ts (4.6×150 mm, manufactured by TOSOH CORPORATION) Column temperature: 30° C. Mobile phase: 50 mM phosphoric acid:methanol:acetonitrile=7:1.5:1.5 Flow rate: 1 mL/min.
as §1, with “follows: […]” for “follows:”

[1] = gliadin + carbohydrate, protein 0.1 μg/mL, relative to control (AGE-BSA) = 1
[2] = lactalbumin + carbohydrate, protein 10 μg/mL, relative to control (AGE-BSA) = 1
[3] = lactic casein + carbohydrate, protein 1 μg/mL, relative to control (AGE-BSA) = 1
[4] = ovalbumin + carbohydrate, protein 10 μg/mL, relative to control (AGE-BSA) = 1
[5] = soybean casein + carbohydrate, protein 0.1 μg/mL, relative to control (AGE-BSA) = 1
[6] = Test Example 1, amino acids, compared with the test section 1 containing only sucrose
[7] = Test Example 1, lysine + arginine 0.2 g each, carbohydrate 3.40 g each
[8] = Test Example 2, gliadin 0.1 g + carbohydrate 3.4 g
[9] = Test Example 2, lactalbumin 0.05 g + carbohydrate 3.4 g
[10] = Test Example 2, lactic casein 0.01 g + carbohydrate 3.4 g
[11] = Test Example 2, ovalbumin 0.05 g + carbohydrate 3.4 g
[12] = Test Example 2, ovalbumin, lactalbumin, gliadin, lactic casein and soybean casein, compared with sections containing sucrose
[13] = Test Example 2, soybean casein 0.01 g + carbohydrate 3.4 g
[14] = Test Example 1, lysine + arginine 0.2 g each, carbohydrate 3.40 g each, 20 mL phosphate buffer

T1 sequence (Q15109 23-404): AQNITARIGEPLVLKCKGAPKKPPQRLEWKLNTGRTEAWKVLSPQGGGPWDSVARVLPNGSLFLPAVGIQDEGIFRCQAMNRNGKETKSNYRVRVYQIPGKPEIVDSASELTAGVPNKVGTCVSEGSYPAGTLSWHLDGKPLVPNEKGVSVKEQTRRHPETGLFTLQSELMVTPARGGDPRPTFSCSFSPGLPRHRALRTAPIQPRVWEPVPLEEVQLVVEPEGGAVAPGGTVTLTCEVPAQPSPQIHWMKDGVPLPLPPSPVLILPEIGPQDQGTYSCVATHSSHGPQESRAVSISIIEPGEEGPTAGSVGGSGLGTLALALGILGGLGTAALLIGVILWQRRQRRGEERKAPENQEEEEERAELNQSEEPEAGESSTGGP

| RAGE agonist activity (human RAGE; [1]) | RAGE agonist activity (human RAGE; [2]) | RAGE agonist activity (human RAGE; [3]) | RAGE agonist activity (human RAGE; [4]) | RAGE agonist activity (human RAGE; [5]) | SMILES | Fluorescent AGEs (fluorescent AGEs; [7]) | Fluorescent AGEs (fluorescent AGEs; [8]) | Fluorescent AGEs (fluorescent AGEs; [9]) | Fluorescent AGEs (fluorescent AGEs; [10]) | Fluorescent AGEs (fluorescent AGEs; [11]) | Fluorescent AGEs (fluorescent AGEs; [13]) | 3-DG (3-DG; [14]) | 3-DG (3-DG; [8]) | 3-DG (3-DG; [9]) | 3-DG (3-DG; [10]) | 3-DG (3-DG; [11]) | 3-DG (3-DG; [13]) | other results |
| --- | --- | --- | --- | --- | --- | --- | --- | --- | --- | --- | --- | --- | --- | --- | --- | --- | --- | --- |
| 0.51 | 0.79 | 0.51 | 1.42 | 0.24 | OC[C@@H](O)[C@@H](O[C@H]1O[C@H](CO)[C@@H](O)[C@H](O)[C@H]1O)[C@H](O)[C@@H](O)CO [Maltitol] | 39 nmol/1 g of amino acid | 632 nmol/1 g of protein | 105 nmol/1 g of protein | 84 nmol/1 g of protein | 136 nmol/1 g of protein | 20 nmol/1 g of protein | 36 nmol/1 g of amino acid | 240 nmol/1 g of protein | 656 nmol/1 g of protein | 2,734 nmol/1 g of protein | 523 nmol/1 g of protein | 1,446 nmol/1 g of protein | RAGE agonist activity (human RAGE; test sections 2, 5 and 11 (ovalbumin, lactalbumin, lactic casein) compared with sections 1, 4 and 10 containing sucrose): decreased; production of fluorescent AGEs (fluorescent AGEs; [6]): decreased; production of AGEs (fluorescent AGEs; [12]): decreased; production of 3-DG (3-DG; [6]): significantly decreased; production of 3-DG (3-DG; [12]): significantly decreased |
| 0.53 | 0.81 | 0.53 | 1.66 | 0.34 | OC[C@H]1O[C@@](CO)(O[C@H]2O[C@H](CO)[C@@H](O)[C@H](O)[C@H]2O)[C@@H](O)[C@@H]1O [Sucrose, reference compound] | 79 nmol/1 g of amino acid | 649 nmol/1 g of protein | 119 nmol/1 g of protein | 100 nmol/1 g of protein | 168 nmol/1 g of protein | 18 nmol/1 g of protein | 151 nmol/1 g of amino acid | 2,645 nmol/1 g of protein | 4,758 nmol/1 g of protein | 22,464 nmol/1 g of protein | 4,532 nmol/1 g of protein | 24,285 nmol/1 g of protein | – |
